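Five compound concentrations were applied to cells in 96-well plates for 48 hours; endpoints were derived by simple linear interpolation of the resulting dose-response curve. Abbreviation: GI50, concentration required for 50% inhibition of growth.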 The source made the active and inactive calls. Rule as the data show it: active = GI50 up to about 1.1 µM and inactive = higher.

Test systems include SF-295; HL-60; UACC-62; NCI-H522; SN12C; SNB-19; COLO 205; M19-MEL; KM12; M14; A498; SNB-75; MOLT-4; SK-MEL-5; ACHN; Malme-3M; MDA-N; BT-549; T47D; MCF7.
Common to all, as to assay: growth of human tumour cells (NCI), 48 h

Take `CCN1CCC(O)(c2ccc(OC)cc2)C(C(=O)c2ccc(OC)cc2)C1` (stereo unspecified): the GI50 in the test with SF-295 is > 100 µM (inactive); in the test on HL-60, 15.9 µM (inactive); with UACC-62 it was 16.9 µM (inactive); in the test with NCI-H522 it was 1.97 µM (inactive); in the test on SN12C, 20 µM (inactive); with SNB-19 it was 28.6 µM (inactive). The GI50 with COLO 205 was 22.9 µM (inactive); in the test on M19-MEL it was 18.3 µM (inactive); with KM12 it was 20.5 µM (inactive); in the test on M14 it was 15.7 µM (inactive); with A498 it was > 10 µM (inactive); in the test with SNB-75, 16.4 µM (inactive). For the same compound, the values for the GI50 in the test on MOLT-4, with SK-MEL-5 and with ACHN were 17.5 µM (inactive), 15.3 µM (inactive) and 16.4 µM (inactive), respectively.

Consider `Cc1cc2c3ccccc3n(C)c2c2c1C(=O)c1ccccc1C2=O`, for which the GI50 with SF-295 was 13.6 µM (inactive); in the test with HL-60 it was 7.82 µM (inactive); in the test on UACC-62 it was 20.8 µM (inactive); in the test with NCI-H522 it was 16.7 µM (inactive); in the test with Malme-3M it was 18.2 µM (inactive); in the test with SN12C, 19.2 µM (inactive). The GI50 in the test with SNB-19 is 33.5 µM (inactive); in the test with COLO 205, 21.1 µM (inactive); in the test on M19-MEL, 3.01 µM (inactive); in the test with KM12, 28.2 µM (inactive); with M14 it was 19.1 µM (inactive); in the test with A498, 25.6 µM (inactive). Moreover, the GI50 in the test on SNB-75 was 29.2 µM (inactive); with MOLT-4, 5.83 µM (inactive).

In the case of `O=C(Nc1cc(C(F)(F)F)ccc1Cl)C(=O)C(C(=O)c1ccc2ccccc2c1)C1OC(=O)c2ccccc21` (stereo unspecified), the GI50 in the test with SF-295 is 4.81 µM (inactive); with HL-60 it was 11 µM (inactive); in the test with UACC-62, 7.26 µM (inactive); in the test on NCI-H522, 4.29 µM (inactive); in the test on Malme-3M, 11.6 µM (inactive); in the test with SN12C it was 13 µM (inactive). Also, the GI50 in the test on SNB-19 was 6.21 µM (inactive); in the test on COLO 205, 10.4 µM (inactive); with M19-MEL, 11.8 µM (inactive); with KM12, 13.3 µM (inactive); with M14 it was 12.2 µM (inactive); with A498, 6.55 µM (inactive). In addition, the GI50 was 7.41 µM (inactive) in the test with SNB-75, 2.09 µM (inactive) with MOLT-4, 7.69 µM (inactive) with SK-MEL-5 and 17 µM (inactive) with ACHN.

For the compound `CN(C)CCn1c2ccccc2c2nc3cc4ccccc4cc3nc21`, the GI50 with SF-295 is 4.05 µM (inactive); in the test with HL-60 it was 1.86 µM (inactive); in the test with UACC-62, 9.14 µM (inactive); in the test on NCI-H522, 5.79 µM (inactive); with Malme-3M, 10 µM (inactive); with SN12C, 4.61 µM (inactive). Besides, the GI50 in the test on SNB-19 is 13.5 µM (inactive); in the test with COLO 205 it was 1.87 µM (inactive); in the test with M19-MEL, 8.73 µM (inactive); in the test on KM12, 3.74 µM (inactive); in the test with M14, 4.1 µM (inactive); in the test with A498 it was 2.34 µM (inactive). Besides, the GI50 with MOLT-4 is 0.885 µM (active); in the test with SK-MEL-5 it was 10.1 µM (inactive); in the test on ACHN, 2.48 µM (inactive).

For `CCc1cccc(CC)c1NC(=O)CC1SC(N)=NC1=O` (stereo unspecified), the GI50 with SF-295, in the test on HL-60, in the test on UACC-62, with NCI-H522, in the test with Malme-3M and with SN12C was > 100 µM (inactive) in each case. Besides, the GI50 in the test with SNB-19, with COLO 205, in the test on M19-MEL, with KM12, with M14 and with A498 was > 100 µM (inactive) in each case. The GI50 with SNB-75, with MOLT-4, in the test on SK-MEL-5 and in the test with ACHN was > 100 µM (inactive) in each case.

Consider `O=C(COc1ccc(Cl)cc1)N1N=C(c2ccc([N+](=O)[O-])o2)CC1(O)c1ccccc1` (stereo unspecified), for which the GI50 is 10.7 µM (inactive) in the test with SF-295; 1.77 µM (inactive) in the test on HL-60; 3.87 µM (inactive) in the test on UACC-62; 15.5 µM (inactive) with NCI-H522; 10.4 µM (inactive) with Malme-3M; 4.44 µM (inactive) with SN12C. For the same compound, the GI50 in the test with SNB-19 is 11.9 µM (inactive); in the test with COLO 205, 3.52 µM (inactive); in the test with M19-MEL, 2.44 µM (inactive); in the test on KM12, 6.58 µM (inactive); with M14, 11.8 µM (inactive); in the test on SNB-75, > 10 µM (inactive). The GI50 in the test with MOLT-4 was 3.42 µM (inactive); in the test on ACHN, 6.03 µM (inactive).

With `CCOC(=O)Cc1csc(Nc2ccc(OCC)cc2)n1`, the GI50 in the test with SF-295, in the test with HL-60, in the test with NCI-H522, in the test on Malme-3M, with SN12C and in the test on SNB-19 was > 100 µM (inactive) throughout. Besides, the GI50 in the test on COLO 205 was > 100 µM (inactive); in the test on M19-MEL, > 100 µM (inactive); in the test on KM12, > 100 µM (inactive); in the test on A498 it was > 100 µM (inactive); in the test on SNB-75, 40.4 µM (inactive); with MOLT-4, 61.8 µM (inactive). Besides, the GI50 in the test with ACHN is > 100 µM (inactive).

As to `N#CCc1nnc(N)o1`, the GI50 in the test on SF-295, in the test on HL-60, in the test on UACC-62, with NCI-H522, in the test on Malme-3M and in the test with SN12C was > 100 µM (inactive) in each case. The GI50 in the test with SNB-19, with M19-MEL, in the test with KM12, in the test with M14, in the test on SNB-75 and with MOLT-4 was > 100 µM (inactive) throughout. The GI50 in the test with ACHN is > 100 µM (inactive).

Take `COP(=O)(OC)C(Nc1ccc(Cc2ccc(NC(c3ccco3)P(=O)(OC)OC)cc2)cc1)c1ccco1` (stereo unspecified): the GI50 in the test on MDA-N is > 100 µM (inactive); with SF-295, 11.5 µM (inactive); in the test on HL-60, > 100 µM (inactive); with UACC-62, 17 µM (inactive); in the test with NCI-H522, 28.3 µM (inactive); in the test on Malme-3M it was 47.9 µM (inactive). Also, the GI50 in the test with SN12C is 97.1 µM (inactive); with SNB-19 it was 11.9 µM (inactive); in the test on BT-549 it was 17.3 µM (inactive); with COLO 205, > 100 µM (inactive); in the test on KM12 it was > 100 µM (inactive); in the test on M14 it was 38.1 µM (inactive). The GI50 is 19 µM (inactive) in the test with A498; 3.33 µM (inactive) with SNB-75; > 100 µM (inactive) with MOLT-4; 67.1 µM (inactive) in the test with T47D; > 100 µM (inactive) with SK-MEL-5; 20.9 µM (inactive) in the test on ACHN. For the same compound, the GI50 in the test on MCF7 is > 100 µM (inactive).

`C=C1CC(c2ccc(O)c(OC)c2)Oc2c(OC)cccc21` (stereo unspecified): the GI50 was 80.5 µM (inactive) in the test on SF-295; 13 µM (inactive) in the test with HL-60; 35.4 µM (inactive) in the test on UACC-62; 10.7 µM (inactive) in the test with NCI-H522; 34.4 µM (inactive) in the test with SN12C; 44.9 µM (inactive) in the test on SNB-19. Besides, the GI50 in the test on COLO 205 is > 100 µM (inactive); in the test on M19-MEL it was 48 µM (inactive); in the test on KM12, 33.7 µM (inactive); with M14 it was 34 µM (inactive); in the test on SNB-75, 39.2 µM (inactive); in the test on MOLT-4 it was 25.1 µM (inactive). The figures for the GI50 in the test on SK-MEL-5 and in the test with ACHN were 35.7 µM (inactive) and 47.4 µM (inactive), respectively.

Turning to `O=C(CCC=C(S(=O)(=O)c1ccccc1)S(=O)(=O)c1ccccc1)c1ccccc1`, the GI50 was 3.69 µM (inactive) with MDA-N; 22.5 µM (inactive) in the test on SF-295; 1.86 µM (inactive) in the test on HL-60; 6.92 µM (inactive) in the test with UACC-62; 2.76 µM (inactive) in the test on NCI-H522; 4.45 µM (inactive) with Malme-3M. Further, the GI50 was 3.26 µM (inactive) with SN12C; 13.6 µM (inactive) in the test with SNB-19; 5.82 µM (inactive) in the test with BT-549; 7.11 µM (inactive) in the test with COLO 205; 10.9 µM (inactive) in the test with KM12; 7.1 µM (inactive) with M14. In addition, the GI50 in the test on A498 is 17.3 µM (inactive); in the test on SNB-75 it was 3.61 µM (inactive); in the test on MOLT-4, 3.98 µM (inactive); with T47D, 5.43 µM (inactive); in the test on SK-MEL-5 it was 6.97 µM (inactive); in the test with ACHN, 5.93 µM (inactive). Also, the GI50 with MCF7 was 4.47 µM (inactive).

With `CN(C)CCN(C)c1ccc2c(=O)n(CCN(C)C)c(=O)n3c4ccccc4c(=O)c1c23`, the GI50 was 0.859 µM (active) in the test on MDA-N; 0.34 µM (active) in the test on SF-295; 0.0627 µM (active) in the test with HL-60; 0.993 µM (active) with UACC-62; 0.259 µM (active) with NCI-H522; 1.23 µM (inactive) with Malme-3M. Also, the GI50 in the test with SN12C was 0.0964 µM (active); in the test with SNB-19, 0.518 µM (active); with BT-549 it was 3.3 µM (inactive); in the test on COLO 205 it was 0.647 µM (active); in the test with KM12, 1.26 µM (inactive); with M14, 0.986 µM (active). For the same compound, the GI50 in the test on A498 is 0.471 µM (active); in the test on SNB-75, 0.316 µM (active); in the test on MOLT-4, 0.0167 µM (active); in the test on T47D, 1.09 µM (active); in the test on SK-MEL-5 it was 0.48 µM (active); in the test on ACHN, 0.0436 µM (active). Moreover, the GI50 in the test with MCF7 was 0.345 µM (active).

Turning to `CN(C)C=C1C(=O)c2c(Br)sc(Br)c2C1=O`, the GI50 in the test with MDA-N was 19.7 µM (inactive); in the test with SF-295, 19.7 µM (inactive); with HL-60 it was 16.3 µM (inactive); with UACC-62, 17.1 µM (inactive); in the test with NCI-H522, 15.9 µM (inactive); with Malme-3M, 14.3 µM (inactive). Moreover, the GI50 in the test on SN12C is 45.6 µM (inactive); with SNB-19 it was 28.7 µM (inactive); with BT-549, 20.8 µM (inactive); with COLO 205, 18.5 µM (inactive); in the test on KM12, 30.1 µM (inactive); with M14 it was 18.7 µM (inactive). Moreover, the GI50 in the test with A498 is 21.3 µM (inactive); with SNB-75, 17 µM (inactive); in the test with MOLT-4, 32.7 µM (inactive); in the test with T47D it was 29.9 µM (inactive); with SK-MEL-5 it was 16.3 µM (inactive); with ACHN, 29.6 µM (inactive). Also, the GI50 in the test on MCF7 is 33.7 µM (inactive).

Source of the values: ChEMBL document CHEMBL1201862, “PubChem BioAssay data set” (2004).
